Laboratory results reported in US12527817B2, “Manufacturing of selenium disulfide compositions” (Azura Ophthalmics Ltd., priority 2020, dated 2026).

Assay: Particle size analysis under a microscope (400x magnification)
Type: physicochemical
Conditions: mixing liquid petrolatum at 60° C. with micronized SeS2, 400× microscope magnification
Description: FIG. 4 illustrates SeS2 formulation obtained mixing liquid petrolatum at a temperature of 60° C. with micronized SeS2 at 400× microscope magnification showing the presence of SeS2 particles larger than 25 microns.
FIG. 3 illustrates a 1% SeS2 (w/w) formulation obtained using the low temperature process.
The active ingredient was SeS2, wherein the particle size distribution D90 is less than 10 microns. The base medium was USP grade petrolatum. A reaction vessel capable of accepting a high shear mixing apparatus was charged with the USP grade petrolatum. In order to create uniform particles distribution in the petrolatum, high shear mixing was applied to disperse the particles. Addition of the active ingredients to the bulk while the whole bulk is agitated is essential in order to properly disperse the active ingredient, the high shear head was used to break the agglomerates to primary particles creating a uniform and homogeneous paste.

S=[Se]=S [SeS2, selenium disulfide]
SeS2 particle size: over 25 microns
